This is an account of results in patent publication US10927126B2, “Positive allosteric modulators of the muscarinic acetylcholine receptor M4” (Vanderbilt University, priority 2016, dated 2021).

Structures can show the parent of a compound that is named as a salt.

Tested on in the first data set: not given
Assay: not given
As to conditions: similar profiles to known antipsychotic drugs, without causing catalepsy; cited from earlier work.
Consider `CCCCCCOc1nsnc1C1=CCCN(C)C1` [xanomeline], for which the “activity in animal models” value is reported as “active in animal models”.

The target of another data set is T1, Human M4 (Homo sapiens, UniProt P08173).
T1 sequence (P08173 1-479): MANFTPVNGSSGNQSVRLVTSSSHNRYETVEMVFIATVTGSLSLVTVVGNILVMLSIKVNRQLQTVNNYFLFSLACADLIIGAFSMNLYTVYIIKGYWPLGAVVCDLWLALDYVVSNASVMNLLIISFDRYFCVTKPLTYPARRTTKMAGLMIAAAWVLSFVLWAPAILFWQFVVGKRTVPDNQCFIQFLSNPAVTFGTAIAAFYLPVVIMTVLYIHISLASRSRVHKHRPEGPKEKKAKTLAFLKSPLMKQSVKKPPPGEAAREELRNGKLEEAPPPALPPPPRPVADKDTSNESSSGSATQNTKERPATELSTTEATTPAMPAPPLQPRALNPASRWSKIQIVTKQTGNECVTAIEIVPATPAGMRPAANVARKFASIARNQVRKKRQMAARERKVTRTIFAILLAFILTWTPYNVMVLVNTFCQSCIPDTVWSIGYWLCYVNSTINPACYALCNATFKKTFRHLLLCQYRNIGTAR
The data set can be described thus: mAChR M4 cell-based functional assay (calcium flux, potentiation of EC20 acetylcholine response). Details: Emax: dose or concentration left out as unconfirmed.
Conditions: not given
In general terms: Calcium assays in cells follow changes in intracellular calcium, usually with a dye or a luminescent sensor.
With `Cc1nnc2sc3c(NCc4ccc(C(C)(C)O)cc4)nccc3c2c1C` [Compound 15, 2-[4-[[(3,4-dimethylpyrido[4′,3′:4,5]thieno[2,3-c]pyridazin-8-yl)amino]lmethyl]phenyl]propan-2-ol], the half-maximal effective concentration (EC50) turned out to be 34.3 nM and the Emax came out at 97.4%. Taken in the same sequence, the figures for `Cc1nnc2sc3c(NCc4ccc(F)c(F)c4)nccc3c2c1C` [Compound 16, N-[(3,4-difluorophenyl)methyl]-3,4-dimethyl-pyrido[4′,3′:4,5]thieno[2,3-c]pyridazin-8-amine hydrochloride] were 194 nM and 81.5%. On to `Cc1nnc2sc3c(NCc4ccc(C(F)(F)F)c(F)c4)nccc3c2c1C` [Compound 17, N-[[3-fluoro-4-(trifluoromethyl)phenyl]methyl]-3,4-dimethyl-pyrido[4′,3′:4,5]thieno[2,3-c]pyridazin-8-amine hydrochloride], for which the EC50 was determined as 1720 nM and the maximum response (Emax) amounted to 66.6%.

`Cc1nnc2sc3c(NCc4ccc(OCC5CC5)c(F)c4)nccc3c2c1C` [Compound 18, N-[[4-(cyclopropylmethoxy)-3-fluoro-phenyl]methyl]-3,4-dimethyl-pyrido[4′,3′:4,5]thieno[2,3-c]pyridazin-8-amine hydrochloride]: the EC50 was 679 nM and the maximal response (Emax) is 88.6%.

`Cc1nnc2sc3c(NC4CN(c5ccc(F)c(F)c5)C4)nccc3c2c1C` [Compound 19, N-[1-(3,4-difluorophenyl)azetidin-3-yl]-3,4-dimethyl-pyrido[4′,3′:4,5]thieno[2,3-c]pyridazin-8-amine hydrochloride]: the EC50 was found to be 164 nM and the maximal effect (Emax) came out at 74.2%. Taken in the same sequence, the figures for `Cc1nnc2sc3c(NCc4ccc(C(C)(C)O)c(F)c4)nccc3c2c1C` [Compound 20, 2-[4-[[(3,4-dimethylpyrido[4′,3′:4,5]thieno[2,3-c]pyridazin-8-yl)amino]methyl]-2-fluoro-phenyl]propan-2-ol] were 39.6 nM and 85.6%. In the case of `Cc1nnc2sc3c(NCc4ccc(C(C)(C)O)cc4F)nccc3c2c1C` [Compound 21, 2-[4-[[(3,4-dimethylpyrido[4′,3′:4,5]thieno[2,3-c]pyridazin-8-yl)amino]methyl]-3-fluoro-phenyl]propan-2-ol], the EC50 was 78.9 nM and the Emax turned out to be 80%.

As to `Cc1nnc2sc3c(NC4CN(c5ccc(C#N)cn5)C4)nccc3c2c1C` [Compound 22, 6-[3-[(3,4-dimethylpyrido[4′,3′:4,5]thieno[2,3-c]pyridazin-8-yl)amino]azetidin-1-yl]pyridine-3-carbonitrile], the half-maximal effective concentration (EC50) is 16.9 nM and the maximal effect (Emax) was 117%.

For the compound `Cc1nnc2sc3c(N4CCCC4)ncc(Cl)c3c2c1C` [Compound 23, 5-Chloro-3,4-dimethyl-8-pyrrolidin-1-yl-pyrido[4′,3′:4,5]thieno[2,3-c]pyridazine Hydrochloride], the concentration for a half-maximal effect (EC50) came out at 351 nM and the maximal effect (Emax) turned out to be 36.5%.

`Cc1cc(C)c2c(n1)sc1c(NC3CN(c4ncc(C(F)(F)F)cn4)C3)nccc12` [Compound 24, 2,4-dimethyl-N-(1-(5-(trifluoromethyl)pyrimidin-2-yl)azetidin-3-yl)thieno[2,3-b:5,4-c′]dipyridin-8-amine]: the EC50 was 150 nM and the maximal response (Emax) was determined as 80.1%. As to `COc1ccc(CNc2nccc3c2sc2nc(C)cc(C)c23)cc1F` [Compound 25, N-(3-fluoro-4-methoxybenzyl)-2,4-dimethylthieno[2,3-b:5,4-c′]dipyridin-8-amine], the concentration for a half-maximal effect (EC50) is greater than 10000 nM and the Emax came to 90.3%. In the same order, the values of `Cc1cc(C)c2c(n1)sc1c(NCc3ccc(C(C)(C)O)cc3)nccc12` [Compound 26, 2-(4-(((2,4-dimethylthieno[2,3-b:5,4-c′]dipyridin-8-yl)amino)methyl)phenyl)propan-2-ol] are 327 nM and 101%. With `Cc1cc(C)c2c(n1)sc1c(NCc3ccc(C(C)(C)O)cc3F)nccc12` [Compound 27, 2-(4-(((2,4-dimethylthieno[2,3-b:5,4-c′]dipyridin-8-yl)amino)methyl)-3-fluorophenyl)propan-2-ol], the half-maximal effective concentration (EC50) turned out to be 1100 nM and the maximal response (Emax) came to 102%.

For `COc1ccc(CNc2nccc3c2sc2nc(C)c(Cl)c(C)c23)cc1` [Compound 28, 3-Chloro-N-(4-methoxybenzyl)-2,4-dimethylthieno[2,3-b:5,4-c′]dipyridin-8-amine], the EC50 amounted to 4970 nM and the maximum response (Emax) is 60.8%.

Turning to `Cc1nc2sc3c(NCc4ccc(C(C)(C)O)cc4)nccc3c2c(C)c1Cl` [Compound 29, 2-(4-(((3-chloro-2,4-dimethylthieno[2,3-b:5,4-c′]dipyridin-8-yl)amino)methyl)phenyl)propan-2-ol], the EC50 was 1540 nM and the Emax came out at 72.9%. In the same order, the values of `Cc1nc2sc3c(N4CCCC4)nccc3c2c(C)c1Cl` [Compound 30, 3-chloro-2,4-dimethyl-8-(pyrrolidin-1-yl)thieno[2,3-b:5,4-c′]dipyridine] are 714 nM and 79.5%. In the case of `Cc1nc2sc3c(NCc4ccc(C(C)(C)O)c(F)c4)nccc3c2c(C)c1Cl` [Compound 31, 2-(4-(((3-chloro-2,4-dimethylthieno[2,3-b:5,4-c′]dipyridin-8-yl)amino)methyl)-2-fluorophenyl)propan-2-ol], the EC50 was found to be 2630 nM and the Emax came to 76.6%. On to `COc1ccc(CNc2nccc3c2sc2nnc(Cl)c(C)c23)cc1` [Compound 32, 3-chloro-N-(4-methoxybenzyl)-4-methylpyrido[4′,3′:4,5]thieno[2,3-c]pyridazin-8-amine], for which the EC50 came out at 58.1 nM and the maximum response (Emax) was 77.5%. Turning to `Cc1c(Cl)nnc2sc3c(NC4CN(c5ncc(C(F)(F)F)cn5)C4)nccc3c12` [Compound 33, 3-chloro-4-methyl-N-(1-(5-(trifluoromethyl)pyrimidin-2-yl)azetidin-3-yl)pyrido[4′,3′:4,5]thieno[2,3-c]pyridazin-8-amine, 2,2,2-trifluoroacetic acid salt], the concentration for a half-maximal effect (EC50) came to 53.9 nM and the Emax worked out at 85.3%. Consider `Cc1c(Cl)nnc2sc3c(NC4CCC4)nccc3c12` [Compound 34, 3-chloro-N-cyclobutyl-4-methylpyrido[4′,3′:4,5]thieno[2,3-c]pyridazin-8-amine], for which the EC50 was determined as 23.6 nM and the Emax came to 91.4%. Consider `Cc1c(Cl)nnc2sc3c(N4CCCC4)nccc3c12` [Compound 35, 3-chloro-4-methyl-8-(pyrrolidin-1-yl)pyrido[4′,3′:4,5]thieno[2,3-c]pyridazine], for which the EC50 is 25.4 nM and the maximum response (Emax) was determined as 101%. Consider `COc1ccc(CNc2nccc3c2sc2nnc(Cl)c(C)c23)cc1F` [Compound 36, 3-chloro-N-(3-fluoro-4-methoxybenzyl)-4-methylpyrido[4′,3′:4,5]thieno[2,3-c]pyridazin-8-amine], for which the EC50 stood at 185 nM and the maximum response (Emax) is 97.6%. `COc1ccc(CNc2nccc3c2sc2nnc(OC)c(C)c23)cc1` [Compound 37, 3-Methoxy-N-(4-methoxybenzyl)-4-methylpyrido[4′,3′:4,5]thieno[2,3-c]pyridazin-8-amine]: the EC50 came out at 562 nM and the Emax is 76.4%. With `COc1nnc2sc3c(NC4CN(c5ncc(C(F)(F)F)cn5)C4)nccc3c2c1C` [Compound 38, 3-methoxy-4-methyl-N-(1-(5-(trifluoromethyl)pyrimidin-2-yl)azetidin-3-yl)pyrido[4′,3′:4,5]thieno[2,3-c]pyridazin-8-amine], the 50% effective concentration (EC50) stood at 280 nM and the maximal effect (Emax) is 80.6%. Taken in the same sequence, the figures for `COc1nnc2sc3c(NC4CCC4)nccc3c2c1C` [Compound 39, N-cyclobutyl-3-methoxy-4-methylpyrido[4′,3′:4,5]thieno[2,3-c]pyridazin-8-amine] were 23.4 nM and 93.2%. Consider `Cc1c(C(F)F)nnc2sc3c(N4CCCC4)nccc3c12` [Compound 40, 3-(Difluoromethyl)-4-methyl-8-(pyrrolidin-1-yl)pyrido[4′,3′:4,5]thieno[2,3-c]pyridazine], for which the EC50 came to 374 nM and the Emax is 55.9%.

For the compound `Cc1c(C(F)F)nnc2sc3c(N4CC5(COC5)C4)nccc3c12` [Compound 41, 6-(3-(difluoromethyl)-4-methylpyrido[4′,3′:4,5]thieno[2,3-c]pyridazin-8-yl)-2-oxa-6-azaspiro[3.3]heptane], the concentration giving a half-maximal response (EC50) was 1880 nM and the maximum response (Emax) was 54.8%. On to `Cc1c(C(F)F)nnc2sc3c(N4CC(c5ccncc5)C4)nccc3c12` [Compound 42, 3-(difluoromethyl)-4-methyl-8-(3-(pyridin-4-yl)azetidin-1-yl)pyrido[4′3′:4,5]thieno[2,3-c]pyridazine], for which the concentration for a half-maximal effect (EC50) amounted to 442 nM and the Emax was found to be 56.1%.

Tested on in a further data set: not given
Assay: not given
As to conditions: Alzheimer's disease patients; cited from earlier work.
`CCCCCCOc1nsnc1C1=CCCN(C)C1` [xanomeline]: the “effect on psychotic behavioral symptoms such as delusions, suspiciousness, vocal outbursts, and hallucinations” value is “reduce psychotic behavioral symptoms”.

Tested on in a further data set: not given
Assay: not given
As to conditions: patients treated with AChE inhibitor; cited from earlier work.
With `Nc1c2c(nc3ccccc13)CCCC2` [tacrine], the “patients with elevated liver transaminases” value is listed as “about 30%”.

As usually defined, the EC50 is the concentration that produces a half-maximal response. A word on the Emax: it is the size of the effect at its maximum, as opposed to the concentration needed.
